Laboratory results reported in patent publication US20230001012A1, “COCRYSTALS OF STEROID AND SECOSTEROID COMPOUNDS AND COMPOSITIONS COMPRISING THEM” (priority 2019, published 2023).

How the values were obtained:
Type in all cases: physicochemical
[1] = Stability of VD3:resorcinol cocrystal vs commercial VD3 in a mineral-vitamin premix containing choline chloride (HPLC-MS)
Description: The stability of the VD3:resorcinol cocrystal mixed in a premix that was a standard mineral-vitamin mix containing choline was studied under normal and high environmental temperature/humidity and compared to the stability of commercial VD3 for animal nutrition (Orffa D3 500) in the same premix under de same conditions.
• 25° C. and 57% humidity (temperature controlled chambers with a saturated solution of NaBr to maintain humidity at 57%); • 40° C. and 75% humidity (temperature controlled chambers with a saturated solution of NaCl to maintain humidity at 75%).
The mineral mix was supplemented to contain 750,000 UI/kg Vitamin A, 5,000 mg/kg vitamin E and 12.5% choline chloride (choline chloride, vegetal coating, 60%). VD3 final content was 1,600,000 UI/Kg (both for the cocrystal VD3:resorcinol and for the commercial VD3.
Samples (2 g) were weighted in 50 mL plastic tubes and incubated in the experimental conditions (see above). Samples for each individual time were incubated in quadruplicates to account for potential variation. Samples were prepared to be retrieved from incubators at 2, 4, 8 and 12 weeks. After each time, samples were processed and analyzed immediately (no storage).
Samples were subjected to an extraction process done in the incubation tube with the full sample to avoid sub-sampling problems. Extracted supernatant was analysed for vitamin D using and HPLC (Model 1260 Series, Agilent, Darmstadr, Germany) coupled with a MS-QQQ (Model G6420, Agilent) against a calibrated curve using a standard vitamin D3. Results are reported as a percent degradation compared with the original Vitamin concentration.

[2] = Dissolution rate of tablets in FaSSIF v2 medium (small-scale dissolution assay, UV quantification, Noyes-Whitney fit); settings: FaSSIF v2 (pH 6.5), 25° C.; for dissolution rate: 120 minutes, 3 mm tablet
Description: Molar extinction coefficients of VD2, VD3 and of the coformer were determined by UV-metric titration using a GIpKa™ titrator (Sirius Analytical Instruments, UK). Briefly, a 10 mM stock solution of sample was prepared in DMSO. 50 μL of sample stock solution and 0.25 mL of a 15 mM potassium phosphate buffer were added to 10 mL of a 0.15 M KCl solution, which in turn contained 17.9 mg of FaSSIF v2 powder. The pH of the sample solution was adjusted to 2 with 0.5 M HCl before starting the titration, and then the titration was done using 0.5 M KOH up to pH 12. The UV absorption spectra (between 250 and 450 nm) of the solution were recorded at each titrant addition by a fiber optic dip-probe. The collected data were refined through the RefinamentPro software, and the pKa values and Molar Extinction Coefficients obtained by Target Factor Analysis.
• Tablet production: tablets of 3 mm diameter were done using a manual hydraulic tablet press (Applied Measurements Ltd, UK). The applied pressure was 100 Kg for 2 min. From 6 to 10 mg of each solid form, vitamin or cocrystal, were weighted. The total exposed surface area was […]. • Medium: FaSSIF v2 (pH 6.5), with corresponding amount of phosphoric (28.4 mM) acid instead of maleic acid. • Dissolution tests were performed with a small-scale dissolution assay installed in a GIpKa™ titrator (Sirius Analytical Instruments, UK). • Dissolution time and temperature: 120 minutes and 25° C. • Procedure: 15 mL of FaSSIF v2 was added into the sample vial containing the tablet. Spectra collection started immediately after. Spectra were recorded every 30 seconds between 250 and 450 nm through a Sirius D-PAS spectrometer with a bifurcated optic fibre dip probe (Hellma Analytics). The medium was stirred at a constant rate.
The concentration of cholecalciferol (VD3) or ergocalciferol (VD2) in solution at each time point is determined from the spectroscopic data by applying the Beer-Lambert law, using previously determined molar extinction coefficients of the pure APIs and the coformers. Spectrum regions where signal is saturated (A>1.5) or presenting medium interferences were discarded. Then, the concentration data were converted into absolute sample quantities, and used to generate the graphs showing the sample quantity vs. time.
Dissolution rate is obtained through the fit of the first order Noyes-Whitney exponential equation to the data: […]
In this equation, [X]t is the weight in grams of compound in solution at the experiment time (min); S is the extrapolated solubility (g) of the vitamin; kd is the rate constant for dissolution (min^−1); and t0 (min) is a term allowing for a temporal offset. Results are calculated using a refinement process in which S, kd and t0 are varied in order to minimize the root mean square deviation between the modelled concentrations and the measured concentrations. The dissolution rate (g min^−1) is given by the product kdS (T. Gravestock et al., Anal. Methods, 2011, 3, 560).

[3] = Stability of VD3 vs VD3:orcinol cocrystal under stress conditions (40° C.-75% RH), solid form analysed periodically by PXRD
Description: The samples were stored under these conditions inside a Series FD Binder chamber and they were analyzed periodically by PXRD. A saturated solution of sodium chloride (75%) was used to control relative humidity.

[4] = Stability of VD2 vs VD2 cocrystals (beta-sitosterol, orcinol) under two stress conditions, solid form analysed periodically by PXRD; settings: for stability under both stress conditions (in words): 25° C./57% RH and 40° C./75% RH
Description: The stability of the VD2 cocrystal with beta-sitosterol and VD2 cocrystal with orcinol was studied and compared to the stability of VD2 (Form A) under two stress conditions. The samples were stored under both stress conditions inside a Series FD Binder chamber and they were analyzed periodically by PXRD. The two stress conditions were the following: • condition A: 25° C. and 57% relative humidity; • condition B: 40° C. and 75% relative humidity.
A saturated solution of sodium bromide salt (for 57% RH) and a saturated solution of sodium chloride (for 75% RH) were used to control relative humidity.

[5] = 40° C./75% H, premix with choline chloride

## C=C1CCC(O)CC1=CC=C1CCCC2(C)C1CCC2C(C)CCCC(C)C.Oc1cccc(O)c1 (centres unmarked) [VD3-resorcinol]
[1]; 25° C./57% H, premix with choline chloride
  stability in premix compared with VD3: more stable than VD3
[1]; [5]
  change of stability in premix: sharp reduction in stability
  stability in premix compared with commercial VD3: better performance than commercial VD3
[1]; both conditions (25° C./57% H and 40° C./75% H)
  stability in premix compared with VD3: more stable than VD3
[2]
  dissolution speed compared with other solid forms: dissolved faster than VD2, VD3, or VD2-VD3
  dissolution rate: 0.94 ± 0.22 nmol/min

## C=C1CC[C@H](O)C/C1=C/C=C1\CCC[C@]2(C)[C@@H]([C@H](C)CCCC(C)C)CC[C@@H]12 [VD3, cholecalciferol, reference compound]
[1]; 25° C./57% H vs 40° C./75% H
  stability in premix, comparison of the two environmental conditions: more stable at 25° C./57% H compared with 40° C./75% H
[2]
  dissolution rate: 0.58 ± 0.14 nmol/min
[3]
  stability under stress conditions (in words): very low stability
  time to conversion into a liquid phase: five
[3]; 0 days
  Solid form (PXRD) under stress conditions: Form A
[3]; 5 days
  Solid form (PXRD) under stress conditions: liquid

## C=C1CCC(O)CC1=CC=C1CCCC2(C)C1CCC2C(C)C=CC(C)C(C)C.C=C1CCC(O)CC1=CC=C1CCCC2(C)C1CCC2C(C)C=CC(C)C(C)C.CCC(CCC(C)C1CCC2C3CC=C4CC(O)CCC4(C)C3CCC12C)C(C)C (stereo not drawn) [VD2:beta-sitosterol]
[4]; 25° C. and 57% of relative humidity
  time remained as the same starting solid form: ≥ 370 days
[4]
  stability under both stress conditions (in words): very high stability
[4]; 40° C. and 75% of relative humidity
  time remained as the same starting solid form: ≥ 25 days
[4]; 40° C.-75% RH, 210 days
  Solid form (PXRD) under stress conditions: Amorphous
[4]; 40° C.-75% RH, 370 days
  Solid form (PXRD) under stress conditions: Amorphous

## C=C1CC[C@H](O)C/C1=C/C=C1\CCC[C@]2(C)[C@@H]([C@H](C)/C=C/[C@H](C)C(C)C)CC[C@@H]12 [VD2, ergocalciferol]
[4]; 25° C.-57% RH, 0 days
  Solid form (PXRD) under stress conditions: Form A
[4]; 25° C.-57% RH, 370 days
  Solid form (PXRD) under stress conditions: Amorphous phase
[4]
  stability under both stress conditions (in words): very low stability
[4]; 40° C.-75% RH, 0 days
  Solid form (PXRD) under stress conditions: Form A
[4]; 40° C.-75% RH, 210 days
  Solid form (PXRD) under stress conditions: Liquid phase
[4]; both stress conditions
  time at which conversion into an amorphous phase started: ≤ 25 days
[2]
  dissolution rate: 0.74 ± 0.23 nmol/min

## C=C1CCC(O)CC1=CC=C1CCCC2(C)C1CCC2C(C)CCCC(C)C.Cc1cc(O)cc(O)c1 (centres unmarked) [VD3:orcinol]
[3]
  stability under stress conditions (in words): very high stability

## C=C1CCC(O)CC1=CC=C1CCCC2(C)C1CCC2C(C)C=CC(C)C(C)C.C=C1CCC(O)CC1=CC=C1CCCC2(C)C1CCC2C(C)CCCC(C)C (centres unmarked) [VD3-VD2]
[2]
  dissolution rate: 0.63 ± 0.21 nmol/min
